# Target: T1, human M4 receptor (Homo sapiens, UniProt P08173)
# T1 construct: purchased Perkin-Elmer RBHM4M; host or cells: CHO cell membranes
# T1 sequence (P08173 1-479): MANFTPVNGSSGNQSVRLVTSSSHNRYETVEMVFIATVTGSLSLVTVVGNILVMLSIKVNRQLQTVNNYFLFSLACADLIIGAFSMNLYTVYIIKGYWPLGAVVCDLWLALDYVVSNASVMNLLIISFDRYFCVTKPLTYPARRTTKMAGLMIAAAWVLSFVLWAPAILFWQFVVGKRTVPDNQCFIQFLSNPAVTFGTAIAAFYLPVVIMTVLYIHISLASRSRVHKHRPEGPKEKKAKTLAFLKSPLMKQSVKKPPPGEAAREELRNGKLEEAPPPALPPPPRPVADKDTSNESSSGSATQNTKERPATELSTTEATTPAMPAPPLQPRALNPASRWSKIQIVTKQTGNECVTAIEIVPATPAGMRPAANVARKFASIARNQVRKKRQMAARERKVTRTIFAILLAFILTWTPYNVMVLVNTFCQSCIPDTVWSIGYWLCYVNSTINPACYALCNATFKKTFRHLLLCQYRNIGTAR
# Experiment: hM4 receptor GTPγS binding
# Assay type: biochemical
# Settings: not given
# Protocol: Membranes produced from Chinese hamster ovary cells (CHO) expressing the cloned human M4 receptor (human Muscarinic receptor subtype 4, gene bank access NM_000741), were obtained from Perkin-Elmer (RBHM4M). The membranes were thawed at 37° C., passed 3 times through a 23-gauge blunt-end needle, diluted in the GTPγS binding buffer (50 mM Hepes, 20 mM NaOH, 100 mM NaCl, 1 mM EDTA, 5 mM MgCl2, pH 7.4, 100 μM DTT). The EC50, IC50 and Emax of the compounds of the invention were evaluated from 10-point dose-response curves (three fold concentration range) done in 60 μl in 384-well non-specific binding surface plate (Corning). Ten microliters from the dose-response curves plate (5× concentration) were transferred to another 384 well plate containing the following: 10 μg of hM4 membranes, 500 μg of Flashblue beads (Perkin-Elmer) and GDP in a 25 μl volume. An additional 15 μl containing 3.3× (55000 dpm) of GTPγS (0.4 nM final) were added to the wells resulting in a total well volume of […]. Basal and maximal stimulated [^35S]GTPγS binding were determined in absence and presence of 30 μM of acetylcholine agonist. The membranes/beads mix were pre-incubated for 15 minutes at room temperature with 40 μM GDP prior to distribution In plates (20 μM final). The reversal of acetylcholine-induced stimulation (10 μM final) of [^35S]GTPγS binding was used to assay the antagonist properties (IC50) of the compounds. The plates were incubated for 60 minutes at room temperature with shaking, then centrifuged at 2000 rpm for 5 minutes. The radioactivity (cpm) were counted in a Trilux (Perkin-Elmer).
# Values of EC50, IC50 and Emax were obtained using sigmoidal fits of a non-linear curve-fitting program (XLfit version 5.0.6 from ID Business Solutions Limited, Guildford, UK) of percent stimulated [^35S]GTRγS binding vs. log(molar ligand).
# All EC50 and IC50 values are reported as arithmetic means±standard error of mean of ‘n’ independent experiments. […] The IC50 was the concentration of the compound of the invention at which 50% inhibition of acetylcholine [^35S]GTRγS binding stimulation has been observed.
row,SMILES,EC50
1,"CCOC(=O)N1CC[C@@H](N2CCC(n3c(=O)[nH]c4ccc(F)cc43)CC2)C1 (single isomer, unassigned) [Example 36]",> 30 µM
2,"CCOC(=O)N1CC[C@H](N2CCC(n3c(=O)[nH]c4ccc(F)cc43)CC2)C1 (single isomer, unassigned) [Example 35]",> 30 µM
3,"CCOC(=O)N1CC[C@H](N2CCC(N3C(=O)Cc4ccccc43)CC2)C1 [Example 26, Ethyl (3S)-3-[4-(2-oxo-2,3-dihydro-1H-indol-1-yl)piperidin-1-yl]pyrrolidine-1-carboxylate]",> 30 µM
4,"O=C1CCCN1CCC(=O)N1CC[C@H](N2CCC(N3C(=O)Cc4ccccc43)CC2)C1 [Example 29, 1-(1-{(3S)-1-[3-(2-oxopyrrolidin-1-yl)propanoyl]pyrrolidin-3-yl}piperidin-4-yl)-1,3-dihydro-2H-indol-2-one]",> 30 µM
5,"O=C1CCCN1CCCC(=O)N1CC[C@H](N2CCC(n3c(=O)[nH]c4ccccc43)CC2)C1 [Example 22, 1-(1-{(3S)-1-[4-(2-oxopyrrolidin-1-yl)butanoyl]pyrrolidin-3-yl}piperidin-4-yl)-1,3-dihydro-2H-benzimidazol-2-one]",> 30 µM
6,"CCOC(=O)N1CC[C@H](N2CCC(n3c(=O)[nH]c4ccc(C#N)cc43)CC2)C1 [Example 41, Ethyl (3S)-3-[4-(6-cyano-2-oxo-2,3-dihydro-1H-benzimidazol-1-yl)piperidin-1-yl]pyrrolidine-1-carboxylate]",> 30 µM
7,"CCOC(=O)N1CC[C@H](N2CCC(n3c(=O)[nH]c4ccc(Cl)cc43)CC2)C1 [Example 42, Ethyl (3S)-3-[4-(6-chloro-2-oxo-2,3-dihydro-1H-benzimidazol-1-yl)piperidin-1-yl]pyrrolidine-1-carboxylate]",≥ 10 µM
8,"O=C(C1CCCC1)N1CC[C@H](N2CCC(n3c(=O)[nH]c4ccccc43)CC2)C1 [Example 19, 1-{1-[(3S)-1-(cyclopentylcarbonyl)pyrrolidin-3-yl]piperidin-4-yl}-1,3-dihydro-2H-benzimidazol-2-one]",0.577 µM

# Same assay, conditions: CHO membranes expressing cloned human M4, [35S]GTPγS binding; read-out: hM4 EC50
row,SMILES,EC50
1,"Cn1c(=O)n(C2CCN([C@H]3CCN(C(=O)CCN4CCCC4=O)C3)CC2)c2ccccc21 [Example 24, 1-methyl-3-(1-{(3S)-1-[3-(2-oxopyrrolidin-1-yl)propanoyl]pyrrolidin-3-yl}piperidin-4-yl)-1,3-dihydro-2H-benzimidazol-2-one]",> 30 µM
2,"CCOC(=O)N1CCC(N2CCC(C3C(=O)Nc4ccccc43)CC2)C1 (centres unmarked) [Example 13, Ethyl 3-[4-(2-oxo-2,3-dihydro-1H-indol-3-yl)piperidin-1-yl]pyrrolidine-1-carboxylate]",> 30 µM
3,"CCOC(=O)N1CC[C@@H](N2CCC(n3c(=O)[nH]c4ccccc43)CC2)C1 [Example 16, Ethyl (3R)-3-[4-(2-oxo-2,3-dihydro-1H-benzimidazol-1-yl)piperidin-1-yl]pyrrolidine-1-carboxylate]",> 30 µM

# Source: patent US20100173935A1, “Muscarinic Receptor Agonists that are Effective in the Treatment of Pain, Alzheimer's Disease and Schizophrenia” (AstraZeneca AB, priority 2006, published 2010)
